Test results as given in patent US11267809B2, “BAF complex modulating compounds and methods of using the same” (THE BOARD OF TRUSTEES OF THE LELAND STANFORD JUNIOR …, priority 2017, dated 2022).
Read-outs that look alike come from different tables or passages of the source.

Key:
HCT116 cells [1] = test: Synergy viability assay (CellTitre blue, 5 days), HCT116 ARID1A(+/+); type: cell-based, human; conditions: for average combination index (CI) of TOP2 inhibitor: with VE-821, ARID1A(+/+); for average combination index (CI) of TOP2 inhibitor / IC50 / average combination index (CI) of putative inhibitor: 5 days; for IC50: Homo sapiens, HCT-116, 120 h, read-out: VE-821 IC50 in combination with BAFi; for average combination index (CI) of putative inhibitor: with VE-821 (1-30 uM) and putative inhibitor (1-30 uM)
Experimental: To assess drug synergy, the Chou-Talalay method was employed to provide a mechanism-independent method to quantify the synergism of drug interactions. This method combines elements of the Scatchard, Michaelis-menten, Hill, and Henderson-Hasslebalch equations through the law of mass-action^31,32 to generate a quantifiable assessment of synergy. Molecules were tested both independently and then in 25 different combinations in HCT116 cells for 5 days as described above. To determine a combination index (CI), median-effect equations of the two respective molecules were determined from their respective dose responses. The median-effect equation was used to calculate a median-effect dose, and (Dx)ATRi,BAFi values which correspond for the respective doses of the BAFi and ATRi compounds and correlate with a given percentage of cells affected by the individual treatments. Normalized index values (IATRi, IBAFi), and the combination index are a ratio between the treatment dose, and the Dx for a given fraction of affected cells. Combination indices less than 0.9 are considered synergistic, while values ranging from 0.9 to 1.1 are additive, and CIs above 1.1 are antagonistic.
(§1) Viability assays were performed in 384-well plates. Cells were plated at 500 cells/well. Each drug was administered in 5-doses with 4 replicates per plate, and each 5×5 drug combination was administered with 8 replicates per plate, 24 hours after seeding. All error bars represent 4 or 8 technical replicates averaged over 3 independent experiments. Media containing fresh drug was replaced every 48 hours. After 5 days, cellular viability was measured using CellTitre blue, as described by the manufacturer.

[2] = system: HCT116 (ARID1A−/−) cell line; test: Synergy viability assay, HCT116 ARID1A(-/-); type: cell-based, human; conditions: for average combination index (CI) of TOP2 inhibitor: with VE-821, ARID1A(−/−), 5 days
Description: (§2) SMARCA4, the primary target of our original screen, is present in both human BAF and PBAF complexes in cancer^12. PBAF complexes differ from BAF complexes by incorporation of specific subunits. Specifically, PBAF complexes contain ARID2 (as opposed to ARID1A/B), PHF10 (BAF45a) (as opposed to […] (BAF45d)), PBRM1, and lack the BAF-specific subunit SS18. PBAF specific subunits are also frequently mutated in cancer, specifically renal clear cell carcinomas and cholangiocarcinomas^33-36. To assess whether the lead compound is targeting BAF, PBAF complexes, or both, we constitutively knocked down ARID1A or ARID2 by lentiviral transduction of HCT116 cells and compared the BAFi/ATRi synergy to the wild-type (ARID1A+/+).
Isogenic HCT116 ARID1A(+/+) and ARID1A(−/−) cell lines were originally obtained from Horizon Discovery. MCF-7, Cal-51, A-704, and MDA-MB-436, MDA-MB-468, HCC1143, HCC1187, HCC1954, and ACHN cell lines were obtained from American Type […]. All cell lines were grown in McCoy's 5a Media supplemented with 10% FBS.
as §1

[3] = system: HCT116 cells infected with shRNA lentivirus targeting ARID1A; test: Synergy viability assay, HCT116 with shARID1A knockdown; type: cell-based, human; conditions: single agent, 5 continuous days
Description: as §2, with “(ARID1A+/+). […] Further, upon knockdown of ARID1A or ARID2 (FIG. 3b), the synergistic effect observed between Baficillin1 and VE-821 was ablated upon loss of ARID1A (FIG. 3e) (CIshARID1A=1.48±0.14), but not loss of shARID2 (CIshARID2=0.42±0.04) (FIG. 3c-e).” for “(ARID1A+/+).”
as §1
Lentiviruses were produced in Lenti-X 293T cells (Clonetech) via spinfection with polyethylenimine transfection. 293T-x cells were transfected with PEI (Polysciences Inc., 24765) with lentiviral PLKO shARID1A or GIPZ shARID2 knockdown vectors, co-transfected with packaging vectors pspax2 and pMD2.G as previously described^49. PLKO shRNA construct targeting ARID1A (TRCN0000059090: shRNA-2) was obtained^50 and GIPZ Human ARID2 shRNA was purchased from Dharmacon (CloneId:V2LHS_74399). […]

HCT116 cells [4] = conditions: 5 days of treatment, before ARID1A deletion, read-out: IC50 of VE-821; cited from earlier work
[5] = system: HCT116 cells, ARID1A deleted; conditions: HCT116 cells upon deletion of ARID1A, 5 days of treatment; read-out: IC50 of VE-821; cited from earlier work

ICRF-193
average combination index (CI) of TOP2 inhibitor (HCT116 cells [1]): 1.0±0.05 | average combination index (CI) of TOP2 inhibitor [2]: 0.82±0.08

COc1cccc2c1C(=O)c1c(O)c3c(c(O)c1C2=O)C[C@@](O)(C(=O)CO)C[C@@H]3O[C@H]1C[C@H](N)[C@H](O)[C@H](C)O1 [Doxorubicin]
average combination index (CI) of TOP2 inhibitor (HCT116 cells [1]): 0.87±0.07 | average combination index (CI) of TOP2 inhibitor [2]: 0.95±0.06

CC(Oc1ccc(Oc2cnc3ccc(Cl)cc3n2)cc1)C(=O)O (stereo not shown) [XK469]
average combination index (CI) of TOP2 inhibitor (HCT116 cells [1]): 0.75±0.05 | average combination index (CI) of TOP2 inhibitor [2]: 0.85±0.09

O=C(/C=C/N1C[C@H]2C[C@@H]1CN2c1ccccn1)c1ccccc1O [PFI-3]
individual dose-response or synergy with VE-821 (HCT116 cells [1]; ARID1A(+/+) condition, as treated in FIG. 4c): no measurable individual dose-response or synergy effects | individual dose-response or synergy with VE-821 ([2]; ARID1A(−/−) condition): no measurable individual dose-response or synergy effects

CS(=O)(=O)c1ccc(-c2cnc(N)c(C(=O)Nc3ccccc3)n2)cc1 [VE-821]
IC50 (HCT116 cells [1]; highest dose of BAFi (Baficillin1) tested in combination): ~1 µM | IC50 (HCT116 cells [1]; lowest dose of BAFi (Baficillin1) 1.25 uM): ~4 µM | sensitivity (cell survival) compared to wild-type HCT116 [3]: increased sensitivity | sensitivity (cell survival) compared to wild-type HCT116 ([2]; single agent, 5 continuous days): increased sensitivity | IC50 (HCT116 cells [4]): ~10 µM | IC50 [5]: ~1 µM

CCc1nc(N)nc(N)c1-c1ccc(Cl)cc1 [Chloroidine, Pyrimethamine]
average combination index (CI) of putative inhibitor (HCT116 cells [1]): 1.3±0.18

COc1ccc2c(C)nc(Nc3nc(C)c(C)c(=O)[nH]3)nc2c1 [Madrasin]
average combination index (CI) of putative inhibitor (HCT116 cells [1]): 1.4±0.04
